Reference: patent publication US7018639B1, “Vaccine antigens of Moraxella” (Commonwealth Scientific and Industrial Research Organisation, priority 1999, dated 2006)

System: M. bovis protease
Assay type: biochemical, Moraxella bovis
Settings: 37° C.

SMILES: O=S(=O)(F)Cc1ccccc1 [PMSF, phenylmethylsulfonyl fluoride]
- protease activity after inhibitor: zero
